Measurements as given in BigSolDB 2.1.

## O=C(O)c1cccc([N+](=O)[O-])c1C(=O)O
In 1,4-dioxane, 288.17 K
  solubility (mole fraction): 0.0758
In 1,4-dioxane, 293.28 K
  solubility (mole fraction): 0.0868
In 1,4-dioxane, 298.31 K
  solubility (mole fraction): 0.097
In 1,4-dioxane, 303.29 K
  solubility (mole fraction): 0.107
In 1,4-dioxane, 308.26 K
  solubility (mole fraction): 0.116
In 1,4-dioxane, 313.2 K
  solubility (mole fraction): 0.124
In 1,4-dioxane, 318.21 K
  solubility (mole fraction): 0.132
In 1,4-dioxane, 323.29 K
  solubility (mole fraction): 0.139
In 1,4-dioxane, 328.19 K
  solubility (mole fraction): 0.146
In 1,4-dioxane, 333.18 K
  solubility (mole fraction): 0.152
In 1,4-dioxane, 338.22 K
  solubility (mole fraction): 0.158
In 1,4-dioxane, 343.16 K
  solubility (mole fraction): 0.163
In 1,4-dioxane, 348.23 K
  solubility (mole fraction): 0.167
In 1,4-dioxane, 353.32 K
  solubility (mole fraction): 0.171
In THF, 278.28 K
  solubility (mole fraction): 0.203
In THF, 283.17 K
  solubility (mole fraction): 0.204
In THF, 288.16 K
  solubility (mole fraction): 0.204
In THF, 293.21 K
  solubility (mole fraction): 0.205
In THF, 298.29 K
  solubility (mole fraction): 0.206
In THF, 303.28 K
  solubility (mole fraction): 0.207
In THF, 308.19 K
  solubility (mole fraction): 0.208
In THF, 313.23 K
  solubility (mole fraction): 0.209
In THF, 318.24 K
  solubility (mole fraction): 0.21
In THF, 323.16 K
  solubility (mole fraction): 0.211
In THF, 328.19 K
  solubility (mole fraction): 0.213
In THF, 333.17 K
  solubility (mole fraction): 0.214
In acetone, 278.16 K
  solubility (mole fraction): 0.0525
In acetone, 283.18 K
  solubility (mole fraction): 0.0541
In acetone, 288.27 K
  solubility (mole fraction): 0.056
In acetone, 293.33 K
  solubility (mole fraction): 0.0582
In acetone, 298.24 K
  solubility (mole fraction): 0.0604
In acetone, 303.19 K
  solubility (mole fraction): 0.0629
In acetone, 308.32 K
  solubility (mole fraction): 0.0657
In acetone, 313.16 K
  solubility (mole fraction): 0.0685
In acetone, 318.2 K
  solubility (mole fraction): 0.0717
In ethyl acetate, 283.2 K
  solubility (mole fraction): 0.00793
In ethyl acetate, 288.26 K
  solubility (mole fraction): 0.00847
In ethyl acetate, 293.28 K
  solubility (mole fraction): 0.00902
In ethyl acetate, 298.19 K
  solubility (mole fraction): 0.00958
In ethyl acetate, 303.21 K
  solubility (mole fraction): 0.0102
In ethyl acetate, 308.3 K
  solubility (mole fraction): 0.0109
In ethyl acetate, 313.16 K
  solubility (mole fraction): 0.0116
In ethyl acetate, 318.22 K
  solubility (mole fraction): 0.0124
In ethyl acetate, 323.16 K
  solubility (mole fraction): 0.0134
In ethyl acetate, 328.23 K
  solubility (mole fraction): 0.0144
In ethyl acetate, 333.17 K
  solubility (mole fraction): 0.0156
In ethyl formate, 283.17 K
  solubility (mole fraction): 0.00268
In ethyl formate, 288.18 K
  solubility (mole fraction): 0.00287
In ethyl formate, 293.21 K
  solubility (mole fraction): 0.00309
In ethyl formate, 298.26 K
  solubility (mole fraction): 0.00335
In ethyl formate, 303.16 K
  solubility (mole fraction): 0.00363
In ethyl formate, 308.19 K
  solubility (mole fraction): 0.00396
In ethyl formate, 313.27 K
  solubility (mole fraction): 0.00433
In ethyl formate, 318.25 K
  solubility (mole fraction): 0.00473
In ethyl formate, 323.29 K
  solubility (mole fraction): 0.00517
In methyl acetate, 278.17 K
  solubility (mole fraction): 0.0334
In methyl acetate, 283.26 K
  solubility (mole fraction): 0.0343
In methyl acetate, 288.27 K
  solubility (mole fraction): 0.0353
In methyl acetate, 293.21 K
  solubility (mole fraction): 0.0365
In methyl acetate, 298.24 K
  solubility (mole fraction): 0.0378
In methyl acetate, 303.16 K
  solubility (mole fraction): 0.0392
In methyl acetate, 308.22 K
  solubility (mole fraction): 0.0407
In methyl acetate, 313.28 K
  solubility (mole fraction): 0.0422
In methyl acetate, 318.17 K
  solubility (mole fraction): 0.0437
In methyl acetate, 323.19 K
  solubility (mole fraction): 0.0452
In n-butyl acetate, 283.18 K
  solubility (mole fraction): 0.00243
In n-butyl acetate, 288.16 K
  solubility (mole fraction): 0.00297
In n-butyl acetate, 293.21 K
  solubility (mole fraction): 0.00353
In n-butyl acetate, 298.19 K
  solubility (mole fraction): 0.0041
In n-butyl acetate, 303.22 K
  solubility (mole fraction): 0.0047
In n-butyl acetate, 308.26 K
  solubility (mole fraction): 0.00531
In n-butyl acetate, 313.27 K
  solubility (mole fraction): 0.00594
In n-butyl acetate, 318.18 K
  solubility (mole fraction): 0.00657
In n-butyl acetate, 323.22 K
  solubility (mole fraction): 0.00724
In n-butyl acetate, 328.24 K
  solubility (mole fraction): 0.00792
In n-butyl acetate, 333.19 K
  solubility (mole fraction): 0.0086
In n-butyl acetate, 338.28 K
  solubility (mole fraction): 0.00933
In n-butyl acetate, 343.25 K
  solubility (mole fraction): 0.0101
In n-butyl acetate, 348.24 K
  solubility (mole fraction): 0.0108
In n-butyl acetate, 353.26 K
  solubility (mole fraction): 0.0116
In water, 283.18 K
  solubility (mole fraction): 0.00115
In water, 288.26 K
  solubility (mole fraction): 0.00129
In water, 293.27 K
  solubility (mole fraction): 0.00152
In water, 298.21 K
  solubility (mole fraction): 0.00179
In water, 303.19 K
  solubility (mole fraction): 0.00211
In water, 308.22 K
  solubility (mole fraction): 0.0025
In water, 313.19 K
  solubility (mole fraction): 0.003
In water, 318.29 K
  solubility (mole fraction): 0.00367
In water, 323.18 K
  solubility (mole fraction): 0.00451
In water, 328.31 K
  solubility (mole fraction): 0.00569
In water, 333.22 K
  solubility (mole fraction): 0.00724
In water, 338.18 K
  solubility (mole fraction): 0.00943
In water, 343.17 K
  solubility (mole fraction): 0.0126
In water, 348.16 K
  solubility (mole fraction): 0.0172
In water, 353.28 K
  solubility (mole fraction): 0.0241
